Several values for one entry are separate records, joined by “and”; a condition that tells them apart may be missing. Equal entries are not always repeated. Blank lines part the entries; values can stand above or below the compound they belong to.
System: 349418-098-R-PDC complex spheroid growth
Assay: Anticancer human tumor 349418-098-R-PDC patient-derived lung adenocarcinoma cell line growth inhibition [AhR]
Conditions: for viability, T/C: stronger effect = lower value
Outline: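 Spheroids combined tumor cells with HUVEC endothelial cells and human MSCs as stroma. AhR antagonists were paired with standard or investigational drugs, each dosed in half-log steps down from near clinical Cmax, or from 10 microM where Cmax was unknown.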

[1] = curve of first compound, second compound 0.1 µM
[2] = curve of first compound, second compound 0.316 µM
[3] = curve of first compound, second compound 1 µM
[4] = curve of first compound, second compound 3.16 µM
[5] = curve of first compound, second compound 10 µM
[6] = second compound 0.1 µM, first compound 0.0316 µM
[7] = second compound 0.1 µM, first compound 0.1 µM
[8] = second compound 0.316 µM, first compound 0.0316 µM
[9] = second compound 0.316 µM, first compound 0.1 µM
[10] = second compound 1 µM, first compound 0.0316 µM
[11] = second compound 1 µM, first compound 0.1 µM
[12] = second compound 3.16 µM, first compound 0.0316 µM
[13] = second compound 3.16 µM, first compound 0.1 µM
[14] = second compound 10 µM, first compound 0.0316 µM
[15] = second compound 10 µM, first compound 0.1 µM
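Further: spheroids exposed to agents for seven days before luminescence viability read.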
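Wherever viability, T/C is given: spheroids also contain HUVEC endothelial cells and human MSC stroma.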

IC50 [1]: > 100 nM
IC50 [2]: > 100 nM
IC50 [3]: > 100 nM
IC50 [4]: > 100 nM
IC50 [5]: > 100 nM
SMILES: Cn1ncnc1C1c2n[nH]c(=O)c3cc(F)cc(c23)NC1c1ccc(F)cc1 (configuration not stated) + Cc1ccccc1N=Nc1ccc(NC(=O)c2ccnn2C)c(C)c1
viability, T/C (second compound 0.1 µM, first compound 0.000316 µM): 106%
viability, T/C (second compound 0.1 µM, first compound 0.001 µM): 93.8%
viability, T/C (second compound 0.1 µM, first compound 0.00316 µM): 118%
viability, T/C (second compound 0.1 µM, first compound 0.01 µM): 56.1%
viability, T/C [6]: 99.1%
viability, T/C [7]: 67.4%
viability, T/C (second compound 0.316 µM, first compound 0.000316 µM): 110%
viability, T/C (second compound 0.316 µM, first compound 0.001 µM): 87.2%
viability, T/C (second compound 0.316 µM, first compound 0.00316 µM): 113%
viability, T/C (second compound 0.316 µM, first compound 0.01 µM): 74.1%
viability, T/C [8]: 115%
viability, T/C [9]: 71.6%
viability, T/C (second compound 1 µM, first compound 0.000316 µM): 82.9%
viability, T/C (second compound 1 µM, first compound 0.001 µM): 102%
viability, T/C (second compound 1 µM, first compound 0.00316 µM): 106%
viability, T/C (second compound 1 µM, first compound 0.01 µM): 89.9%
viability, T/C [10]: 94.2%
viability, T/C [11]: 80.6%
viability, T/C (second compound 3.16 µM, first compound 0.000316 µM): 72.1%
viability, T/C (second compound 3.16 µM, first compound 0.001 µM): 90.2%
viability, T/C (second compound 3.16 µM, first compound 0.00316 µM): 98.8%
viability, T/C (second compound 3.16 µM, first compound 0.01 µM): 79%
viability, T/C [12]: 71.4%
viability, T/C [13]: 63.6%
viability, T/C (second compound 10 µM, first compound 0.000316 µM): 61.5%
viability, T/C (second compound 10 µM, first compound 0.001 µM): 71.8%
viability, T/C (second compound 10 µM, first compound 0.00316 µM): 76.2%
viability, T/C (second compound 10 µM, first compound 0.01 µM): 51.2%
viability, T/C [14]: 70.8%
viability, T/C [15]: 55.6%

IC50 [1]: 772 nM
IC50 [2]: 706 nM
IC50 [3]: 597 nM
IC50 [4]: 671 nM
IC50 [5]: 331 nM
SMILES: O=C(C=Cc1cccc(S(=O)(=O)Nc2ccccc2)c1)NO + Cc1ccccc1N=Nc1ccc(NC(=O)c2ccnn2C)c(C)c1
viability, T/C [6]: 132%
viability, T/C [7]: 119%
viability, T/C (second compound 0.1 µM, first compound 0.316 µM): 73%
viability, T/C (second compound 0.1 µM, first compound 1 µM): 47.6%
viability, T/C (second compound 0.1 µM, first compound 3.16 µM): 10.4%
viability, T/C (second compound 0.1 µM, first compound 10 µM): 1.93%
viability, T/C [8]: 126%
viability, T/C [9]: 108%
viability, T/C (second compound 0.316 µM, first compound 0.316 µM): 82.8%
viability, T/C (second compound 0.316 µM, first compound 1 µM): 36.1%
viability, T/C (second compound 0.316 µM, first compound 3.16 µM): 8.81%
viability, T/C (second compound 0.316 µM, first compound 10 µM): 1.91%
viability, T/C [10]: 109%
viability, T/C [11]: 122%
viability, T/C (second compound 1 µM, first compound 0.316 µM): 69.3%
viability, T/C (second compound 1 µM, first compound 1 µM): 33.3%
viability, T/C (second compound 1 µM, first compound 3.16 µM): 8.25%
viability, T/C (second compound 1 µM, first compound 10 µM): 2.09%
viability, T/C [12]: 94%
viability, T/C [13]: 94.1%
viability, T/C (second compound 3.16 µM, first compound 0.316 µM): 78.3%
viability, T/C (second compound 3.16 µM, first compound 1 µM): 34.7%
viability, T/C (second compound 3.16 µM, first compound 3.16 µM): 8.53%
viability, T/C (second compound 3.16 µM, first compound 10 µM): 2.35%
viability, T/C [14]: 74.7%
viability, T/C [15]: 72.5%
viability, T/C (second compound 10 µM, first compound 0.316 µM): 50%
viability, T/C (second compound 10 µM, first compound 1 µM): 22.9%
viability, T/C (second compound 10 µM, first compound 3.16 µM): 8.56%
viability, T/C (second compound 10 µM, first compound 10 µM): 2.05%

IC50 (curve of compound): < 31.6 nM
SMILES: Nc1ccn(C2OC(CO)C(O)C2(F)F)c(=O)n1 (configuration not stated)
viability, T/C (compound 0.0316 µM): 4.83% and 12.5% and 13.7%
viability, T/C (compound 0.1 µM): 4.18% and 11.3% and 11.8%
viability, T/C (compound 0.316 µM): 4.06% and 10.1% and 12.9%
viability, T/C (compound 1 µM): 5.57% and 9.29% and 10.5%
viability, T/C (compound 3.16 µM): 4.07% and 9.38% and 10.2%
viability, T/C (compound 10 µM): 3.24% and 7.8% and 8.55%

Reference: PubChem BioAssay AID1918996 (Molecular Pharmacology Branch, DTP, NCI, 2023)
